This assay has as its system Mus musculus. Put plainly: Protective activity of compound against lethal systemic infection by Staphylococcus aureus 8008 (MRSA) in ICR mice at 1 hr after subcutaneous administration. It is filed as functional. The conditions noted are these: sc.

With `C[C@@H](O)[C@H]1C(=O)N2C(C(=O)O)=C(SCCNC=N)C[C@H]12` [IMIPENEM ANHYDROUS], the ED50 worked out at 7.02 mg/kg.

The values are drawn from ChEMBL document CHEMBL1130441, “Studies on -lactam antibiotics. Synthesis and antibacterial activity of novel 1-methylcarbapenems related to FR21818: 5-membered ring analogs” (1997).
